Experimental data: US5556744A, “Methods and compositions for diagnosing and treating certain HIV infected patients” (The Trustees of the University of Pennsylvania, priority 1994, dated 1996)

What was measured:
[1] = system: HIV-1 infected cells (MN isolate); assay: Anti-syncytial assay (inhibition of HIV-1 MN syncytium formation, SupT1 target cells); format: cell-based
Source text: The H9 cell line (a cutaneous T lymphoma line) infected by HIV-IIIB [ATCC CRL 8543] was used in the neutralization assay. The H9 cell line infected by HIV-MN was used in the anti-syncytial assays. SupT1 and Hut78 cells were used as the target cell lines for the anti-syncytial and neutralization assays. All cell lines were obtained from the National Institutes of Health AIDS Repository (Bethesda, Md.).
To analyze the effect of the maternal serum samples on HIV-1 fusion, SupT1 cells were used as target cells in an anti-syncytial assay. Dilutions of the different maternal serum samples were made in 96 well plates in RPMI 1640 media containing 10% fetal calf serum at final dilutions of 1:4, 1:8, 1:16, 1:32, 1:64, 1:128, 1:256 or 1:512. HIV-1 infected cells (MN isolate) were then plated in the wells at a density of approximately 10^4 cells per well. SupT1 target cells were then added at 5×10^5 /well and the number of syncytia are determined after 3 days of incubation. Inhibition of syncytium formation by a serum sample was considered significant if the dilution which yielded a 50% reduction in the number of syncytia when compared to control was greater than 1:32. The average number of syncytia in the control (normal human serum) wells at the above dilutions were: 45.5, 48.5, 44, 48, 48.5, 41.5, 42 and 45.5 respectively.

[2] = system: maternal HIV+ sera (antibodies); assay: RIA / ELISA binding of maternal HIV+ sera to gp120 and gp41 peptides (Example 3); set-up: species or system human; conditions: for Number of maternal sera binding to peptide: 20 maternal sera; for Binding of maternal sera to peptide (in words): Example 3; for Number of binding maternal sera from the non-transmission group: non-transmission group (13 sera); for Number of binding maternal sera from the transmission group: vertical transmission group (7 sera)
Summary of the method: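 Peptides were coated at 10 μg/ml in carbonate buffer pH 9.6 and blocked with 1% BSA. Sera at 1:50 and 1:500 were incubated overnight at 4°C and detected with ¹²⁵I anti-human IgG (RIA) or HRP/TMB at OD450 (ELISA). Specific binding was taken as peptide minus no-peptide wells, scored as a ratio to normal human serum.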

HIV-1 = conditions: cited from earlier work
[3] = system: maternal sera (antibodies); assay: ELISA peptide-binding of maternal sera (Example 6); set-up: species or system human
Summary of the method: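 Third-trimester maternal sera, from HIV-1 transmitting and non-transmitting mothers, were tested by ELISA against ~16-residue peptides spanning HIV-1 external and transmembrane glycoproteins. Each serum was run with at least 40 peptides, and values are the percentage of sera binding each peptide.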

[4] = Serum No. 1, Non-Transmission Group
[5] = Serum No. 2, Non-Transmission Group
[6] = Serum No. 3, Non-Transmission Group
[7] = Serum No. 4, Transmission Group
[8] = Serum No. 5, Transmission Group
[9] = Serum No. 6, Non-Transmission Group
[10] = Serum No. 7, Non-Transmission Group
[11] = Serum No. 8, Non-Transmission Group
[12] = Serum No. 9, Non-Transmission Group
[13] = Serum No. 10, Transmission Group
[14] = Serum No. 11, Non-Transmission Group
[15] = Serum No. 12, Non-Transmission Group
[16] = Serum No. 13, Transmission Group
[17] = Serum No. 14, Transmission Group
[18] = Serum No. 15, Transmission Group
[19] = Serum No. 16, Non-Transmission Group
[20] = Serum No. 17, Non-Transmission Group
[21] = Serum No. 18, Non-Transmission Group
[22] = Serum No. 19, Transmission Group
[23] = Serum No. 20, Non-Transmission Group

Sequence | Number of samples which bound the peptide and possessed anti-syncytial activity ([1]; sera which bound the peptide) | Number of maternal sera binding to peptide [2] | Binding of maternal sera to peptide (in words) [2] | Binding of maternal HIV+ serum to peptide (sera/NHS ratio) [2, 4] | Binding of maternal HIV+ serum to peptide (sera/NHS ratio) [2, 5] | Binding of maternal HIV+ serum to peptide (sera/NHS ratio) [2, 6] | Binding of maternal HIV+ serum to peptide (sera/NHS ratio) [2, 7] | Binding of maternal HIV+ serum to peptide (sera/NHS ratio) [2, 8] | Binding of maternal HIV+ serum to peptide (sera/NHS ratio) [2, 9] | Binding of maternal HIV+ serum to peptide (sera/NHS ratio) [2, 10] | Binding of maternal HIV+ serum to peptide (sera/NHS ratio) [2, 11] | Binding of maternal HIV+ serum to peptide (sera/NHS ratio) [2, 12] | Binding of maternal HIV+ serum to peptide (sera/NHS ratio) [2, 13] | Binding of maternal HIV+ serum to peptide (sera/NHS ratio) [2, 14] | Binding of maternal HIV+ serum to peptide (sera/NHS ratio) [2, 15] | Binding of maternal HIV+ serum to peptide (sera/NHS ratio) [2, 16] | Binding of maternal HIV+ serum to peptide (sera/NHS ratio) [2, 17] | Binding of maternal HIV+ serum to peptide (sera/NHS ratio) [2, 18] | Binding of maternal HIV+ serum to peptide (sera/NHS ratio) [2, 19] | Binding of maternal HIV+ serum to peptide (sera/NHS ratio) [2, 20] | also measured
TLPCASDAKAYDTEV [Peptide 93] | 6 | six | Several maternal serum samples had reactivity | ++ (which value is greater than 3) | - (specific OD450 or cpm of sera sample binding to peptide divided by the specific OD450 or cpm of NHS sample binding to peptide, which value is less than 2) | - (specific OD450 or cpm of sera sample binding to peptide divided by the specific OD450 or cpm of NHS sample binding to peptide, which value is less than 2) | ++ (which value is greater than 3) | - (specific OD450 or cpm of sera sample binding to peptide divided by the specific OD450 or cpm of NHS sample binding to peptide, which value is less than 2) | + (which value is between 2 to 3) | ++ (which value is greater than 3) | + (which value is between 2 to 3) | - (specific OD450 or cpm of sera sample binding to peptide divided by the specific OD450 or cpm of NHS sample binding to peptide, which value is less than 2) | - (specific OD450 or cpm of sera sample binding to peptide divided by the specific OD450 or cpm of NHS sample binding to peptide, which value is less than 2) | - (specific OD450 or cpm of sera sample binding to peptide divided by the specific OD450 or cpm of NHS sample binding to peptide, which value is less than 2) | - (specific OD450 or cpm of sera sample binding to peptide divided by the specific OD450 or cpm of NHS sample binding to peptide, which value is less than 2) | - (specific OD450 or cpm of sera sample binding to peptide divided by the specific OD450 or cpm of NHS sample binding to peptide, which value is less than 2) | - (specific OD450 or cpm of sera sample binding to peptide divided by the specific OD450 or cpm of NHS sample binding to peptide, which value is less than 2) | - (specific OD450 or cpm of sera sample binding to peptide divided by the specific OD450 or cpm of NHS sample binding to peptide, which value is less than 2) | + (which value is between 2 to 3) | - (specific OD450 or cpm of sera sample binding to peptide divided by the specific OD450 or cpm of NHS sample binding to peptide, which value is less than 2) | Percent of samples which bound the peptide and possessed anti-syncytial activity ([1]; sera which bound the peptide): 100%; Binding of maternal HIV+ serum to peptide (sera/NHS ratio) [2, 21]: - (specific OD450 or cpm of sera sample binding to peptide divided by the specific OD450 or cpm of NHS sample binding to peptide, which value is less than 2); Binding of maternal HIV+ serum to peptide (sera/NHS ratio) [2, 22]: - (specific OD450 or cpm of sera sample binding to peptide divided by the specific OD450 or cpm of NHS sample binding to peptide, which value is less than 2); Binding of maternal HIV+ serum to peptide (sera/NHS ratio) [2, 23]: - (specific OD450 or cpm of sera sample binding to peptide divided by the specific OD450 or cpm of NHS sample binding to peptide, which value is less than 2); Number of binding maternal sera from the non-transmission group [2]: 5; Percent of binding maternal sera from the non-transmission group ([2]; of the sera which bound): 83%; Percent of binding maternal sera from the transmission group ([2]; of the sera which bound): 17%; Number of binding maternal sera from the transmission group [2]: 1
CFRPGGGDMRDNWREL [Peptide 466] | all of them | three | very strong binding | - (specific OD450 or cpm of sera sample binding to peptide divided by the specific OD450 or cpm of NHS sample binding to peptide, which value is less than 2) | - (specific OD450 or cpm of sera sample binding to peptide divided by the specific OD450 or cpm of NHS sample binding to peptide, which value is less than 2) | - (specific OD450 or cpm of sera sample binding to peptide divided by the specific OD450 or cpm of NHS sample binding to peptide, which value is less than 2) | - (specific OD450 or cpm of sera sample binding to peptide divided by the specific OD450 or cpm of NHS sample binding to peptide, which value is less than 2) | - (specific OD450 or cpm of sera sample binding to peptide divided by the specific OD450 or cpm of NHS sample binding to peptide, which value is less than 2) | + (which value is between 2 to 3) | - (specific OD450 or cpm of sera sample binding to peptide divided by the specific OD450 or cpm of NHS sample binding to peptide, which value is less than 2) | - (specific OD450 or cpm of sera sample binding to peptide divided by the specific OD450 or cpm of NHS sample binding to peptide, which value is less than 2) | ++ (which value is greater than 3) | - (specific OD450 or cpm of sera sample binding to peptide divided by the specific OD450 or cpm of NHS sample binding to peptide, which value is less than 2) | - (specific OD450 or cpm of sera sample binding to peptide divided by the specific OD450 or cpm of NHS sample binding to peptide, which value is less than 2) | - (specific OD450 or cpm of sera sample binding to peptide divided by the specific OD450 or cpm of NHS sample binding to peptide, which value is less than 2) | - (specific OD450 or cpm of sera sample binding to peptide divided by the specific OD450 or cpm of NHS sample binding to peptide, which value is less than 2) | - (specific OD450 or cpm of sera sample binding to peptide divided by the specific OD450 or cpm of NHS sample binding to peptide, which value is less than 2) | - (specific OD450 or cpm of sera sample binding to peptide divided by the specific OD450 or cpm of NHS sample binding to peptide, which value is less than 2) | - (specific OD450 or cpm of sera sample binding to peptide divided by the specific OD450 or cpm of NHS sample binding to peptide, which value is less than 2) | - (specific OD450 or cpm of sera sample binding to peptide divided by the specific OD450 or cpm of NHS sample binding to peptide, which value is less than 2) | Neutralizing activity of antisera generated to the peptide (HIV-1; antisera (animals)): exhibit neutralizing activity; Antisyncytial and neutralizing activities elicited by the peptide (HIV-1; in words, Example 5): can elicit both antisyncytial and neutralizing activities; Antisyncytial activity of non-transmission sera which reacted with the peptide ([1]; Example 5): possessed, to varying degrees, antisyncytial activity; Binding of maternal HIV+ serum to peptide (sera/NHS ratio) [2, 21]: + (which value is between 2 to 3); Binding of maternal HIV+ serum to peptide (sera/NHS ratio) [2, 22]: - (specific OD450 or cpm of sera sample binding to peptide divided by the specific OD450 or cpm of NHS sample binding to peptide, which value is less than 2); Binding of maternal HIV+ serum to peptide (sera/NHS ratio) [2, 23]: - (specific OD450 or cpm of sera sample binding to peptide divided by the specific OD450 or cpm of NHS sample binding to peptide, which value is less than 2); Percent of the maternal serum samples that bound to the peptide ([2]; all 20 samples): 15%; Number of binding maternal sera from the non-transmission group [2]: three; Number of binding maternal sera from the transmission group [2]: Zero; Number of Non-Transmitters which bound to peptide ([3]; Non-Transmitters, N = 12): 0; Percent of Non-Transmitters which bound to peptide ([3]; Non-Transmitters, N = 12): 0%; Number of Transmitters which bound to peptide ([3]; Transmitters, N = 4): 0; Percent of Transmitters which bound to peptide ([3]; Transmitters, N = 4): 0%
